Experiment [1] addresses Human cGAS amino acids 155-522 (Homo sapiens (Human), UniProt Q8N884). Nature of the experiment: cGAS biochemical activity assay (ATP remaining, Kinase-Glo Max luminescence). The note with it: human cGAS 155-522, ATP remaining (Kinase-Glo Max); read-out: cGAS IC50. In general terms: Kinase-Glo measures the ATP left after a reaction by luminescence.
Experiment [2] has as its system cGAS/STING pathway in THP1 cells. As to the kind of experiment: THP1 cell-based cGAS/STING pathway activity assay (IRF-3-linked luciferase reporter). Conditions: Homo sapiens, THP-1. The source says:
A cellular assay can be used to assess the compounds of the invention for their ability to inhibit the cGAS/STING pathway. Cells that express a luciferase-based reporter that is linked to IRF-3 activation are used to determine response as a function of compound concentration. Such an assay is described in Vincent et al., Nature Communications 2017, 8(1):750, doi: 10.1038/s41467-017-00833-9.
A cellular assay can be used to assess the compounds of the invention for their ability to inhibit the cGAS/STING pathway. Cells that express a luciferase-based reporter that is linked to IRF-3 activation are used to determine response as a function of compound concentration. Such an assay is described in Vincent et al., Nature Communications 2017, 8(1):750, doi: 10.1038/s41467-017-00833-9. Compounds of the invention were assessed using similar assay methods in a THP1 cell assay to generate IC50 values as provided in the following Table 16. In this table, activity level “A” indicates an IC50 value less than 20 μM, “B” indicates an IC50 value between 20 and 100 μM, and “C” indicates an IC50 value above the upper limit of the assay (100 μM), or where an IC50 value could not be generated from the data.
Background: In a reporter assay the amount or activity of a reporter protein is the signal.

Our source for the IC50 values is US10738056B2 (Aduro BioTech, Inc., priority 2017, dated 2020).

Sequence of Human cGAS amino acids 155-522 (Q8N884 157-522): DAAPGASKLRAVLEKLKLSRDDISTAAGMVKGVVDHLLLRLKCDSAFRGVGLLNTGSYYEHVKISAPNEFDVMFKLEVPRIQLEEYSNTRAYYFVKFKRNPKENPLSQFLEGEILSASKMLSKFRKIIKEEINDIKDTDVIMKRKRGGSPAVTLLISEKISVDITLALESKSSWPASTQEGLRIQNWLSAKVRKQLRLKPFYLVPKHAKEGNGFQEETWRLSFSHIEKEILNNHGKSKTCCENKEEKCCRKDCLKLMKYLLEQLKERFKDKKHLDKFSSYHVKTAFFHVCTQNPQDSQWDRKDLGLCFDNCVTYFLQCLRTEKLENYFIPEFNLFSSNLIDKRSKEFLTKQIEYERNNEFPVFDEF

Turning to `Cc1[nH]c2c(-c3ccccc3)c(C(F)(F)F)nn2c(=O)c1C(=O)Nc1cc(C)n(C)n1` [Compound A1079, N-(1,5-dimethyl-1H-pyrazol-3-yl)-5-methyl-7-oxo-3-phenyl-2-(trifluoromethyl)-4,7-dihydropyrazolo[1,5-a]pyrimidine-6-carboxamide], the IC50 in experiment [1] is under 20 µM; in experiment [2] it was over 100 µM.
With `Cc1cc(NC(=O)c2c(C)[nH]c3c(-c4ccccc4)c(C(F)(F)F)nn3c2=O)[nH]n1` [Compound A1081, 5-methyl-N-(3-methyl-1H-pyrazol-5-yl)-7-oxo-3-phenyl-2-(trifluoromethyl)-4,7-dihydropyrazolo[1,5-a]pyrimidine-6-carboxamide], the values for the IC50 in experiment [1] and in experiment [2] were under 20 µM and 20 to 100 µM, respectively.
Turning to `Cc1[nH]c2c(-c3ccccc3)c(C(F)(F)F)nn2c(=O)c1C(=O)Nc1ccccc1S(C)(=O)=O` [Compound A1083, 5-methyl-N-(2-(methylsulfonyl)phenyl)-7-oxo-3-phenyl-2-(trifluoromethyl)-4,7-dihydropyrazolo[1,5-a]pyrimidine-6-carboxamide], the figures for the half-maximal inhibitory concentration (IC50) in experiment [1] and in experiment [2] were under 20 µM and over 100 µM, respectively.
For `Cc1[nH]c2c(-c3ccccc3)c(C(F)(F)F)nn2c(=O)c1C(=O)Nc1cccc(S(C)(=O)=O)c1` [Compound A1084, 5-methyl-N-(3-(methylsulfonyl)phenyl)-7-oxo-3-phenyl-2-(trifluoromethyl)-4,7-dihydropyrazolo[1,5-a]pyrimidine-6-carboxamide], in that order: under 20 µM and 20 to 100 µM.
Taken in the same sequence, the figures for `COc1ccc(NC(=O)c2c(C)[nH]c3c(-c4ccccc4)c(C(F)(F)F)nn3c2=O)cn1` [Compound A1088, N-(6-methoxypyridin-3-yl)-5-methyl-7-oxo-3-phenyl-2-(trifluoromethyl)-4,7-dihydropyrazolo[1,5-a]pyrimidine-6-carboxamide] were 20 to 250 µM and 20 to 100 µM.
For `Cc1[nH]c2c(-c3ccccc3)c(C(F)(F)F)nn2c(=O)c1C(=O)Nc1cccnc1S(C)(=O)=O` [Compound A1096, 5-methyl-N-(2-(methylsulfonyl)pyridin-3-yl)-7-oxo-3-phenyl-2-(trifluoromethyl)-4,7-dihydropyrazolo[1,5-a]pyrimidine-6-carboxamide], in that order: under 20 µM and 20 to 100 µM.
For the compound `COc1cnccc1NC(=O)c1c(C)[nH]c2c(-c3ccccc3)c(C(F)(F)F)nn2c1=O` [Compound A1099, N-(3-methoxypyridin-4-yl)-5-methyl-7-oxo-3-phenyl-2-(trifluoromethyl)-4,7-dihydropyrazolo[1,5-a]pyrimidine-6-carboxamide], the IC50 in experiment [1] is 20 to 250 µM; in experiment [2], over 100 µM.
For `COc1cccnc1NC(=O)c1c(C)[nH]c2c(-c3ccccc3)c(C(F)(F)F)nn2c1=O` [Compound A1100, N-(3-methoxypyridin-2-yl)-5-methyl-7-oxo-3-phenyl-2-(trifluoromethyl)-4,7-dihydropyrazolo[1,5-a]pyrimidine-6-carboxamide], in that order: under 20 µM and 20 to 100 µM.
Taken in the same sequence, the figures for `Cc1[nH]c2c(-c3ccccc3)c(C(F)(F)F)nn2c(=O)c1C(=O)Nc1cccc2c1OCC2` [Compound A1101, N-(2,3-dihydrobenzofuran-7-yl)-5-methyl-7-oxo-3-phenyl-2-(trifluoromethyl)-4,7-dihydropyrazolo[1,5-a]pyrimidine-6-carboxamide] were under 20 µM and under 20 µM.
Taken in the same sequence, the figures for `Cc1[nH]c2c(-c3ccccc3)c(C(F)(F)F)nn2c(=O)c1C(=O)Nc1cccc2c1CCO2` [Compound A1102, N-(2,3-dihydrobenzofuran-4-yl)-5-methyl-7-oxo-3-phenyl-2-(trifluoromethyl)-4,7-dihydropyrazolo[1,5-a]pyrimidine-6-carboxamide] were under 20 µM and over 100 µM.
`COc1ccnc(NC(=O)c2c(C)[nH]c3c(-c4ccccc4)c(C(F)(F)F)nn3c2=O)n1` [Compound A1104, N-(4-methoxypyrimidin-2-yl)-5-methyl-7-oxo-3-phenyl-2-(trifluoromethyl)-4,7-dihydropyrazolo[1,5-a]pyrimidine-6-carboxamide]: the IC50 in experiment [1] was under 20 µM; in experiment [2], 20 to 100 µM.
As for `Cc1nn2c(=O)c(C(=O)Nc3ccccc3S(C)(=O)=O)c(C)[nH]c2c1-c1ccccc1` [Compound A1106, 2,5-dimethyl-N-(2-(methylsulfonyl)phenyl)-7-oxo-3-phenyl-4,7-dihydropyrazolo[1,5-a]pyrimidine-6-carboxamide], the IC50 in experiment [1] is under 20 µM; in experiment [2] it was over 100 µM.
Taken in the same sequence, the figures for `Cc1[nH]c2c(-c3ccccc3)c(C(F)(F)F)nn2c(=O)c1C(=O)Nc1cccc2c1OCCC2` [Compound A1107, N-(chroman-8-yl)-5-methyl-7-oxo-3-phenyl-2-(trifluoromethyl)-4,7-dihydropyrazolo[1,5-a]pyrimidine-6-carboxamide] were under 20 µM and under 20 µM.
Taken in the same sequence, the figures for `COc1ccc(NC(=O)c2c(C)[nH]c3c(-c4ccccc4)c(C(F)(F)F)nn3c2=O)nn1` [Compound A1110, N-(6-methoxypyridazin-3-yl)-5-methyl-7-oxo-3-phenyl-2-(trifluoromethyl)-4,7-dihydropyrazolo[1,5-a]pyrimidine-6-carboxamide] were under 20 µM and over 100 µM.
With `CCCS(=O)(=O)NC(=O)c1c(C)[nH]c2c(-c3ccccc3)c(C(F)(F)F)nn2c1=O` [Compound A1111, 5-methyl-7-oxo-3-phenyl-N-(propylsulfonyl)-2-(trifluoromethyl)-4,7-dihydropyrazolo[1,5-a]pyrimidine-6-carboxamide], the results for the IC50 in experiment [1] and in experiment [2] were under 20 µM and over 100 µM, respectively.
For `Cc1[nH]c2c(-c3ccccc3)c(C(F)(F)F)nn2c(=O)c1C(=O)NS(=O)(=O)Cc1ccccc1` [Compound A1112, N-(benzylsulfonyl)-5-methyl-7-oxo-3-phenyl-2-(trifluoromethyl)-4,7-dihydropyrazolo[1,5-a]pyrimidine-6-carboxamide], in that order: under 20 µM and 20 to 100 µM.
Taken in the same sequence, the figures for `Cc1[nH]c2c(-c3ccccc3)c(C(F)(F)F)nn2c(=O)c1C(=O)Nc1ccc(S(C)(=O)=O)nc1` [Compound A1113, 5-methyl-N-(6-(methylsulfonyl)pyridin-3-yl)-7-oxo-3-phenyl-2-(trifluoromethyl)-4,7-dihydropyrazolo[1,5-a]pyrimidine-6-carboxamide] were 20 to 250 µM and over 100 µM.
For `COCCn1ccc(NC(=O)c2c(C)[nH]c3c(-c4ccccc4)c(C(F)(F)F)nn3c2=O)n1` [Compound A1115, N-(1-(2-methoxyethyl)-1H-pyrazol-3-yl)-5-methyl-7-oxo-3-phenyl-2-(trifluoromethyl)-4,7-dihydropyrazolo[1,5-a]pyrimidine-6-carboxamide], the results for the IC50 in experiment [1] and in experiment [2] were 20 to 250 µM and over 100 µM, respectively.
For `Cc1[nH]c2c(-c3ccccc3)c(C(F)(F)F)nn2c(=O)c1C(=O)NS(=O)(=O)c1ccccc1` [Compound A1116, 5-methyl-7-oxo-3-phenyl-N-(phenylsulfonyl)-2-(trifluoromethyl)-4,7-dihydropyrazolo[1,5-a]pyrimidine-6-carboxamide], in that order: under 20 µM and 20 to 100 µM.
In the case of `Cc1[nH]c2c(-c3ccccc3)c(C(F)(F)F)nn2c(=O)c1C(=O)NS(C)(=O)=O` [Compound A1117, 5-methyl-N-(methylsulfonyl)-7-oxo-3-phenyl-2-(trifluoromethyl)-4,7-dihydropyrazolo[1,5-a]pyrimidine-6-carboxamide], the concentration for half-maximal inhibition (IC50) was 20 to 250 µM in experiment [1] and over 100 µM in experiment [2].
Turning to `Cc1[nH]c2c(-c3ccccc3)c(C(F)(F)F)nn2c(=O)c1C(=O)Nc1ccn(CCO)n1` [Compound A1118, N-(1-(2-hydroxyethyl)-1H-pyrazol-3-yl)-5-methyl-7-oxo-3-phenyl-2-(trifluoromethyl)-4,7-dihydropyrazolo[1,5-a]pyrimidine-6-carboxamide], the results for the IC50 in experiment [1] and in experiment [2] were 20 to 250 µM and over 100 µM, respectively.
For `Cc1[nH]c2c(-c3ccccc3)c(C(F)(F)F)nn2c(=O)c1C(=O)NS(=O)(=O)c1ccccn1` [Compound A1120, 5-methyl-7-oxo-3-phenyl-N-(pyridin-2-ylsulfonyl)-2-(trifluoromethyl)-4,7-dihydropyrazolo[1,5-a]pyrimidine-6-carboxamide], in that order: under 20 µM and over 100 µM.
On to `COc1ccccc1S(=O)(=O)NC(=O)c1c(C)[nH]c2c(-c3ccccc3)c(C(F)(F)F)nn2c1=O` [Compound A1121, N-((2-methoxyphenyl)sulfonyl)-5-methyl-7-oxo-3-phenyl-2-(trifluoromethyl)-4,7-dihydropyrazolo[1,5-a]pyrimidine-6-carboxamide], for which the IC50 in experiment [1] was under 20 µM; in experiment [2], over 100 µM.
With `Cc1[nH]c2c(-c3ccccc3)c(C(F)(F)F)nn2c(=O)c1C(=O)NS(=O)(=O)C1CCCCC1` [Compound A1124, N-(cyclohexylsulfonyl)-5-methyl-7-oxo-3-phenyl-2-(trifluoromethyl)-4,7-dihydropyrazolo[1,5-a]pyrimidine-6-carboxamide], the IC50 in experiment [1] was under 20 µM; in experiment [2] it was over 100 µM.

As a reminder, the IC50 is the concentration that inhibits the measured activity by half.
